Reference: the NIST ThermoML archive (doi:10.1021/acs.jced.5b00051)

Experiment: molar heat capacity at constant pressure
Conditions: 101.33 kPa, Liquid, Large sample (1 g) DSC

CCCCCCOCCOCCO [2-(2-hexyloxyethoxy)ethanol]
Conditions | molar heat capacity at constant pressure [J/K/mol]
275.15 K | 411.2
277.15 K | 412
279.15 K | 412.8
281.15 K | 413.6
283.15 K | 414.4
285.15 K | 415.3
287.15 K | 416.1
289.15 K | 417
291.15 K | 417.9
293.15 K | 418.7
295.15 K | 419.6
297.15 K | 420.5
298.15 K | 421
299.15 K | 421.4
301.15 K | 422.3
303.15 K | 423.2
305.15 K | 424.2
307.15 K | 425.1
309.15 K | 426
311.15 K | 427
313.15 K | 428
315.15 K | 428.9
317.15 K | 429.9
319.15 K | 430.9
321.15 K | 431.9
323.15 K | 432.9
325.15 K | 433.9
327.15 K | 434.9
329.15 K | 436
331.15 K | 437
333.15 K | 438
335.15 K | 439.1
337.15 K | 440.2
339.15 K | 441.2

COCCOCCO [2-(2-methoxyethoxy)ethanol]
Conditions | molar heat capacity at constant pressure [J/K/mol]
275.15 K | 261.9
277.15 K | 262.3
279.15 K | 262.7
281.15 K | 263.2
283.15 K | 263.6
285.15 K | 264.1
287.15 K | 264.6
289.15 K | 265.1
291.15 K | 265.6
293.15 K | 266.1
295.15 K | 266.6
297.15 K | 267.1
298.15 K | 267.4
299.15 K | 267.6
301.15 K | 268.2
303.15 K | 268.7
305.15 K | 269.3
307.15 K | 269.8
309.15 K | 270.4
311.15 K | 271
313.15 K | 271.6
315.15 K | 272.2
317.15 K | 272.8
319.15 K | 273.4
321.15 K | 274
323.15 K | 274.7
325.15 K | 275.3
327.15 K | 276
329.15 K | 276.6
331.15 K | 277.3
333.15 K | 278
335.15 K | 278.7
337.15 K | 279.4
339.15 K | 280.1

CCCOCCOCCO [2-(2-propoxyethoxy)ethanol]
Conditions | molar heat capacity at constant pressure [J/K/mol]
275.15 K | 321.3
277.15 K | 322
279.15 K | 322.6
281.15 K | 323.3
283.15 K | 324
285.15 K | 324.7
287.15 K | 325.4
289.15 K | 326.1
291.15 K | 326.8
293.15 K | 327.5
295.15 K | 328.2
297.15 K | 329
298.15 K | 329.4
299.15 K | 329.7
301.15 K | 330.5
303.15 K | 331.3
305.15 K | 332
307.15 K | 332.8
309.15 K | 333.6
311.15 K | 334.4
313.15 K | 335.2
315.15 K | 336
317.15 K | 336.9
319.15 K | 337.7
321.15 K | 338.5
323.15 K | 339.4
325.15 K | 340.3
327.15 K | 341.1
329.15 K | 342
331.15 K | 342.9
333.15 K | 343.8
335.15 K | 344.7
337.15 K | 345.6
339.15 K | 346.5

COCCOCCOCCO [2-[2-(2-methoxyethoxy)ethoxy]ethanol]
Conditions | molar heat capacity at constant pressure [J/K/mol]
275.15 K | 352.2
277.15 K | 352.6
279.15 K | 352.9
281.15 K | 353.2
283.15 K | 353.6
285.15 K | 353.9
287.15 K | 354.3
289.15 K | 354.7
291.15 K | 355.1
293.15 K | 355.5
295.15 K | 355.9
297.15 K | 356.3
298.15 K | 356.6
299.15 K | 356.8
301.15 K | 357.2
303.15 K | 357.7
305.15 K | 358.1
307.15 K | 358.6
309.15 K | 359.1
311.15 K | 359.6
313.15 K | 360.1
315.15 K | 360.6
317.15 K | 361.2
319.15 K | 361.7
321.15 K | 362.2
323.15 K | 362.8
325.15 K | 363.4
327.15 K | 364
329.15 K | 364.5
331.15 K | 365.1
333.15 K | 365.8
335.15 K | 366.4
337.15 K | 367
339.15 K | 367.6
